Measured values published in patent publication US20220133783A1 (priority 2020, published 2022).
Several values for one entry are separate records, joined by “and”; a condition that tells them apart may be missing. Equal entries are not always repeated.

Tests used:
[1] = tested on: VSV pseudo typed with SARS-CoV2 Spike protein (rVSG-dG 2019-CoV-2-18AA S); format: cell-based
virus = conditions: cited from earlier work
Human coronavirus 229E = format: cell-based; conditions: 10 min pre-treatment with 10 μg/mL

Substance	FIC of the single agent within the combination [1]	reported effect by itself on virus inhibition (antiviral concentration) (virus) [µg/mL]	human coronavirus 229E binding and replication in the MRC-5 cell line (Human coronavirus 229E; SEM)	viral entry and cytopathic effects caused by the virus (Human coronavirus 229E; after 48 hours of incubation, compared to controls)	cytotoxicity (MRC-5 cells)
copper	0.10 and 0.07	300	–	–	–
ethyl-N-alpha-lauroyl-L-arginate HCl [ELAH]	0.10	300	inhibited	reduces	non-cytotoxic
